Data set [1] relates to human B-52 NSCL cancer model, xenografted in nude mice. Briefly: 2nd experiment: B-52 NSCL cancer xenograft in nude mice, epothilone with Iloprost and/or O-acetyl salicylic acid. The settings on record: Iloprost 0.2 mg/kg i.v. days 22-26, O-acetyl salicylic acid 60 mg/kg p.o. days 19-29; for effect on tumor growth (tumor area): 2nd experiment (FIG. 1), epothilone 8 mg/kg i.v. once day 24.
Method: (§1) B-52 NSCL tumor pieces obtained from in vivo passage, were implanted s.c. in the inguinal region of female nude mice. Treatment was started when the tumors were approximately 25 mm^2 in size. Tumor area was determined by caliper measurements twice weekly.
The 2nd Experiment was made to evaluate in a human B-52 NSCL cancer model, xenografted in nude mice the effect of: • Iloprost and O-acetyl salicyclic acid alone, • the combination of Iloprost and epothilone, • the combination of O-acetyl salicyclic acid and epothilone, • the combination of Iloprost and O-acetyl salicyclic acid as well as • the combination of Iloprost, O-acetyl salicyclic acid and epothilone.
The study was designed to determine the response of a lung cancer model to a cytotoxic treatment regime with the epothilone derivative in combination with Iloprost, O-acetyl salicylic acid or the combination thereof.
The tumor-inhibiting effect of, O-acetyl salicylic acid (ASS) and iloprost was investigated in the human B-52 NSCL cancer model, xenografted in nude mice.
B-52 tumor pieces obtained from in vivo passage, were implanted s.c. in the inguinal region of female nude mice. Treatment was started when the tumors were approximately 25 mm^2 in size. Tumor area was determined by caliper measurements twice weekly.
(§2) Tumor area was determined by caliper measurements.

In data set [2] the test system is human B52 NSCLC cells xenografted to nude mice. Conditions: for effect on tumor growth (tumor area): 1st experiment.
Method: as §1
B-52 tumor pieces obtained from in vivo passage, were implanted s.c. in the inguinal region of female nude mice. Treatment was started when the tumors were approximately 25 mM2 in size. Tumor area was determined by caliper measurements twice weekly.
as §2

The values that follow come from patent US20090163450A1, “COMBINATIONS COMPRISING A PROSTAGLANDIN AND USES THEREOF” (priority 2007, published 2009).

Entries after “also recorded” stand apart in the source; their conditions may differ. Like-named read-outs stand apart in the source and are kept apart here.

For the compound `C=CC[C@H]1C(=O)C(C)(C)[C@@H](O)CC(=O)O[C@H](c2ccc3sc(C)nc3c2)C[C@@H]2O[C@]2(C)CCC[C@H](C)[C@@H]1O` [epothilone, (1S,3S,7S,10R,11S,12S,16R)-7,11-dihydroxy-3-(2-methyl-benzothiazol-5-yl)-10-(prop-2-en-1-yl)-8,8,12,16-tetramethyl-4,17-dioxabicyclo[14.1.0]heptadecane-5,9-dione], the “effect on tumor growth (tumor area)” value was “slightly reduced tumor growth; also recorded: effective in growth inhibiting” in data set [1] and “reduced tumor growth” in data set [2] (epothilone at the highest dose of 10 mg/kg i.v. 1x day 29). In addition, the toxicity result in data set [2] (mouse, in vivo, iv, 10 mg/kg) is reported as “proved to be toxic”.

For `CC#CCC(C)[C@H](O)/C=C/[C@@H]1[C@H]2C/C(=C/CCCC(=O)O)C[C@H]2C[C@H]1O` (stereo partly drawn) [Iloprost, ((E)-5-{(3aS,4R,5R,6aS)-5-Hydroxy-4-[(E)-(3S,4RS)-3-hydroxy)-4-methyl-1-octen-6-ynyl]perhydropentalen-2-ylidene}valeric acid], the “effect on tumor growth (tumor area)” value is “no effects” in data set [1] and “no significant effect on tumor growth” in data set [2] (Iloprost 0.2 mg/kg i.v. 1x/day days 27-31, epothilone 7 or 10 mg/kg i.v. 1x day 29). Besides, the effect on bodyweight result in data set [1] (2nd experiment) is “no effect”.
